What was measured:
[1] = Reducing activity of the stable radical DPPH; assay type: biochemical
Protocol: The novel derivatives were studied for their interaction with the sTable 2,2-diphenyl-1-picrylhydrazyl free radical (DPPH)at concentration 50 µM, 100 µM and 200 µM after 20 and 60 min (Table 2). In this assay the DPPH radical is reduced transferring one electron from the antioxidant. Phenolic compounds such as catechol and derivatives generate phenoxide anions with strong antioxidant capacity. Nordihydroguaretic acid (NDGA), the reference compound acts by this mechanism. Compound 10 presents the highest scavenging activity at 100 µM after 20 min correlated with the presence of the phenolic OH. Compounds 3, 4, 5, 7 presented medium activities depending from time and concentration. The presence of the heteroatom O or S seems to influence the activity e.g., derivatives 1, 2, and 3. Replacement of phenyl ring (4) by a thienyl group (1) decreases antioxidant behavior. […] On the contrary the presence of the furyl ring (3) enhances reduction. Additionally, the presence of a π-dimethyl-amino group 6 reduces the scavenging ability whereas its absence in (5), increases the activity. The presence of two conjugated double bonds (5) leads to lower activity compared to the simpler compound 4. Compounds 9 and 10 present the highest milogP values (5.94). Both include a phenolic hydrogen in their structure. […] On the contrary in compound 9 steric reasons are possible to lead to a decrease. Lipophilicity seems to influence the interaction of compound 10.
To a solution of DPPH in absolute ethanol an equal volume of the compounds with final concentrations of 50, 100 and 200 µM from a stock solution of 10 mM (in 1% DMSO and ethanol) was added. After 20 and 60 min the absorbance was recorded at 517 nm at room temperature (Table 2).

trypsin = assay: In vitro inhibition of trypsin induced proteolysis; assay type: biochemical; conditions: bovine albumin substrate, no = no action under the experimental conditions
Protocol: Serine proteases are implicated in the pathophysiology of inflammatory diseases and trypsin is well known years ago [66]. Trypsin has been associated with host defense reactions and tissue damage. In this study, the novel derivatives have been evaluated towards trypsin and thrombin. Compounds 8 and 9 present high activity.
The Kunitz method was used after modification using bovine albumin was used as substrate for trypsin. In this assay, first 200 μL of 0.075 mg/mL trypsin and 780 μL of phosphate buffer pH 7.6 including the tested compounds (20 μL in DMSO, final concentration 100 μM) were pre-incubated at 37 °C for 20 min and then added 1 mL of albumin (stock solution 6 g/100 mL in phosphate buffer 0.1 M, pH 7.6) and incubated at 37 °C for 30 min. Secondly 1mLof 5% trichloroacetic acid was added to the incubated solution to stop the enzyme’s reaction and allowed to set at room temperature for 1 h. Then the solution was filtered, and the absorption of the filtrate was measured at 280 nm using salicylic acid as a reference compound [61] (Table 3).

[2] = Experimental lipophilicity as RM values by RPTLC; assay type: physicochemical; design: key: RM = log[(1/Rf) − 1], from Rf values by RPTLC; conditions: methanol/water 70/30, 24 °C, average of at least 5 measurements
Description: Lipophilicity is a physicochemical parameter indicating the relationship of a drug to its biological activity. It affects ligand-target binding interactions, solubility, ADME (absorption, distribution, bioavailability, metabolism, and elimination) and toxicological effects. RPTLC (reverse phase thin layer chromatography) method was used for the experimental determination, as RM values. The RPTLC method is considered a secure, rapid and appropriate method for expressing the lipophilic character of a compound (Table 1).
Reversed phase TLC (RPTLC) was performed on silica gel plates impregnated with 5% (v/v) liquid paraffin in light petroleum ether. The mobile phase was a methanol/water mixture (70/30, v/v). The plates were developed in closed chromatography tanks saturated with the mobile phase at 24 °C. Spots were detected under UV light. Five individual measurements of Rf values were recorded and used for the determination of RM using the equation RM = log [(1/Rf) − 1] [59, 60, 62] (Table 2).

[3] = Inhibition of linoleic acid peroxidation induced by AAPH; assay type: biochemical; conditions: no = no action under the experimental conditions
Description: In the water soluble 2,2′-azobis(2-amidinopropane) hydrochloride (AAPH) the free radicals are produced in vitro through spontaneous thermal decomposition resembling to lipid peroxidation in cells due to the action of the peroxyl radicals. […] Compounds 11, 5, 4 and 3 presented no activity under the experimental conditions. From the experimental results it can be concluded that the 3,5-di-tert-butyl-group offers protection against lipid peroxidation. Electronic parameters expressed by the highest occupied molecular orbital (HOMO) describes better the biological activity (Equation (2)). log AAPH % = −22.042(± 8.731) HOMO − 4.853 (2.622)(2) n = 8, r = 0.930, r^2 = 0.864, q^2 = 0.567, s = 0.146, F1,8 = 5.783, α = 0.1
The oxidation reaction was started with 2,2′-Azobis(2-amidinopropane) dihydrochloride (AAPH) as a free radical initiator. Linoleic acid sodium salt was oxidized at 234 nm to a conjugated diene hydroperoxide resulting an increased absorption. Trolox was used as reference compound (93%) (Table 3).

[4] = ABTS+. decolorization assay; assay type: biochemical; conditions: 1 min, no = no action under the experimental conditions
Description: The radical cation ABTS^+• is directly generated through potassium persulfate by oxidation with no participation of an intermediary radical and then the reduction is followed by adding electron-donating antioxidants. In this assay the radical is generated before adding the antioxidant (decolorization assay). […] It seems that lipophilicity influences the activity, since both are presenting high lipophilicity values. […] The radical cation ABTS^+• was generated from an ABTS stock solution in water (7 mM) which was mixed with potassium persulfate (2.45 mM) and left in the dark at room temperature for 12–16 h before use. The results are recorded after 1min of the mixing solutions at 734 nm and compared to the appropriate standard inhibitor Trolox (Table 3).

bovine thrombin = target: T1, bovine thrombin (Bos taurus, UniProt P00735); assay: In vitro inhibition of thrombin; assay type: biochemical; conditions: substrate tosyl-Gly-Pro-Arg-pNA, no = no action under the experimental conditions; for inhibition at 100 µM: read-out: TH% 100 µM (thrombin inhibition)
T1 construct: purchased Sigma Chemical, Co. (St. Louis)
Protocol: It is well known that indandione derivatives exert their anticoagulant activity indirectly by inhibiting prothrombin synthesis in the liver. […] Derivatives 1, 2, 5, 8, 9, 10, and 12 were tested in vitro as possible thrombin inhibitors. Among the tested derivatives compound 8 presented 100% inhibition followed by compounds […] and 10.
As a substrate tosyl-Gly-Pro-Arg-pNA acetate salt was used at 1 mM final concentration. Compounds were dissolved at a final concentration of […] in a Tris-buffer (0.05 M Tris, 0.154 M NaCl, ethanol 5%, pH = 8.0). Three minutes after the addition of bovine thrombin (2.5 unit/mg), the reaction was ended by adding 1 mL acetic acid 50%. The absorption of the released p-nitro-aniline was measured at 405 nm (Table 3). Warfarin and Inogatran were used as reference compounds.

Cc1ccsc1C=C1C(=O)c2ccccc2C1=O [Compound 2, (Z)-2-((3-methylthiophen-2-yl)methylene)-1H-indene-1,3(2H)-dione]
melting point: 171 to 172 °C
RA% 50 µM 20 min [1]: 2%
RA% 50 µM 60 min [1]: 2%
RA% 100 µM 20 min [1]: 16%
RA% 100 µM 60 min [1]: 16%
RA% 200 µM 20 min [1]: 4%
RA% 200 µM 60 min [1]: 7%
Iptr% 100 µM (inhibition of trypsin induced proteolysis) (trypsin): do not present any activity and no
RM (±SD) [2]: 0.031 ± 0
AAPH% 100 µM (anti-lipid peroxidation) [3]: 92%
ABTS+. % 100 µM (decolorization activity) [4]: 2%

Cc1ccc(C=C2C(=O)c3ccccc3C2=O)o1 [Compound 3, (Z)-2-((5-methylfuran-2-yl)methylene)-1H-indene-1,3(2H)-dione]
RA% 50 µM 20 min [1]: 20%
RA% 50 µM 60 min [1]: 23%
RA% 100 µM 20 min [1]: 37%
RA% 100 µM 60 min [1]: 40%
RA% 200 µM 20 min [1]: 61%
RA% 200 µM 60 min [1]: 75%
Iptr% 100 µM (inhibition of trypsin induced proteolysis) (trypsin): 17%
RM (±SD) [2]: 0.014 ± 0
AAPH% 100 µM (anti-lipid peroxidation) [3]: no activity and no
inhibition at 100 µM (bovine thrombin): 39%
ABTS+. % 100 µM (decolorization activity) [4]: 20%

O=C1C(=Cc2ccccc2)C(=O)c2ccccc21 [Compound 4, 2-benzylidene-1H-indene-1,3(2H)-dione]
RA% 50 µM 20 min [1]: 5%
RA% 50 µM 60 min [1]: 10%
RA% 100 µM 20 min [1]: 26%
RA% 100 µM 60 min [1]: 32%
RA% 200 µM 20 min [1]: 23%
RA% 200 µM 60 min [1]: 32%
Iptr% 100 µM (inhibition of trypsin induced proteolysis) (trypsin): 4%
RM (±SD) [2]: −0.615 ± 0.02
AAPH% 100 µM (anti-lipid peroxidation) [3]: no activity and no
TH% 100 µM (thrombin inhibition) (bovine thrombin): no
ABTS+. % 100 µM (decolorization activity) [4]: 19%

CN(C)c1ccc(/C=C\C=C2C(=O)c3ccccc3C2=O)cc1 [Compound 6, (Z)-2-(3-(4-(dimethylamino)phenyl)allylidene)-1H-indene-1,3(2H)-dione]
melting point: 85 to 87 °C
RA% 50 µM 20 min [1]: 6%
RA% 50 µM 60 min [1]: 6%
RA% 100 µM 20 min [1]: 22%
RA% 100 µM 60 min [1]: 23%
RA% 200 µM 20 min [1]: 15%
RA% 200 µM 60 min [1]: 18%
Iptr% 100 µM (inhibition of trypsin induced proteolysis) (trypsin): 29%
RM (±SD) [2]: −0.527 ± 0
AAPH% 100 µM (anti-lipid peroxidation) [3]: 9%
inhibition at 100 µM (bovine thrombin): 19%
ABTS+. % 100 µM (decolorization activity) [4]: 22%

O=C1C(=Cc2cccc(Oc3ccccc3)c2)C(=O)c2ccccc21 [Compound 7, (Z)-2-(3-phenoxybenzylidene)-1H-indene-1,3(2H)-dione]
melting point: 143 to 145 °C
RA% 50 µM 20 min [1]: 27%
RA% 50 µM 60 min [1]: 35%
RA% 100 µM 20 min [1]: 40%
RA% 100 µM 60 min [1]: 50%
RA% 200 µM 20 min [1]: 75%
RA% 200 µM 60 min [1]: 85%
Iptr% 100 µM (inhibition of trypsin induced proteolysis) (trypsin): 33%
RM (±SD) [2]: −0.196 ± 0.02
AAPH% 100 µM (anti-lipid peroxidation) [3]: 82%
TH% 100 µM (thrombin inhibition) (bovine thrombin): no
ABTS+. % 100 µM (decolorization activity) [4]: 37%

O=C1C(=Cc2ccc(OCc3ccc(Br)cc3)cc2)C(=O)c2ccccc21 [Compound 8, (Z)-2-(4-((4-bromobenzyl)oxy)benzylidene)-1H-indene-1,3(2H)-dione]
melting point: 222 to 224 °C
RA% 50 µM 20 min [1]: 4%
RA% 50 µM 60 min [1]: 5%
RA% 100 µM 20 min [1]: 7%
RA% 100 µM 60 min [1]: 7%
RA% 200 µM 20 min [1]: 0%
RA% 200 µM 60 min [1]: 0%
Iptr% 100 µM (inhibition of trypsin induced proteolysis) (trypsin): 85%
AAPH% 100 µM (anti-lipid peroxidation) [3]: 79%
inhibition at 100 µM (bovine thrombin): 100%
ABTS+. % 100 µM (decolorization activity) [4]: 16%

CC(C)(C)c1cc(C=C2C(=O)c3ccccc3C2=O)c(O)c(C(C)(C)C)c1 [Compound 9, (Z)-2-(3,5-di-tert-butyl-2-hydroxybenzylidene)-1H-indene-1,3(2H)-dione]
melting point: 52 to 54 °C
RA% 50 µM 20 min [1]: 4%
RA% 50 µM 60 min [1]: 3%
RA% 100 µM 20 min [1]: 3%
RA% 100 µM 60 min [1]: 1%
RA% 200 µM 20 min [1]: 6%
RA% 200 µM 60 min [1]: 6%
Iptr% 100 µM (inhibition of trypsin induced proteolysis) (trypsin): 98%
RM (±SD) [2]: −1.038 ± 0
AAPH% 100 µM (anti-lipid peroxidation) [3]: 96%
inhibition at 100 µM (bovine thrombin): 0%
ABTS+. % 100 µM (decolorization activity) [4]: no

CC(C)(C)c1cc(C=C2C(=O)c3ccccc3C2=O)cc(C(C)(C)C)c1O [Compound 10, (Z)-2-(3,5-di-tert-butyl-4-hydroxybenzylidene)-1H-indene-1,3(2H)-dione]
melting point: 98 to 100 °C
RA% 50 µM 20 min [1]: 13%
RA% 50 µM 60 min [1]: 17%
RA% 100 µM 20 min [1]: 100%
RA% 100 µM 60 min [1]: 85%
RA% 200 µM 20 min [1]: 71%
RA% 200 µM 60 min [1]: 71%
Iptr% 100 µM (inhibition of trypsin induced proteolysis) (trypsin): do not present any activity and no
RM (±SD) [2]: −0.103 ± 0
AAPH% 100 µM (anti-lipid peroxidation) [3]: 85%
inhibition at 100 µM (bovine thrombin): 27%
ABTS+. % 100 µM (decolorization activity) [4]: 39%

O=C1C(=Cc2c[nH]c3ccccc23)C(=O)c2ccccc21 [Compound 12, (Z)-2-((1H-indol-3-yl)methylene)-1H-indene-1,3(2H)-dione]
melting point: 283 to 285 °C
RA% 50 µM 20 min [1]: 3%
RA% 50 µM 60 min [1]: 3%
RA% 100 µM 20 min [1]: 17%
RA% 100 µM 60 min [1]: 17%
RA% 200 µM 20 min [1]: 4%
RA% 200 µM 60 min [1]: 6%
Iptr% 100 µM (inhibition of trypsin induced proteolysis) (trypsin): do not present any activity and no
RM (±SD) [2]: −0.134 ± 0.02
AAPH% 100 µM (anti-lipid peroxidation) [3]: 31%
ABTS+. % 100 µM (decolorization activity) [4]: no
